Test results: publication PMC6463023, “Epigenetic Changes at the Birc5 Promoter Induced by YM155 in Synovial Sarcoma” (Journal of Clinical Medicine, 2019)

What was measured:
survivin [1] = test system: survivin; design: method as in PMID 20816704; conditions: cited from earlier work
[2] = design: method as in PMID 18824702; conditions: patients, clinical trials; cited from earlier work
caspase 3/7 = assay: Caspase-Glo 3/7 activity in HS-SY-II cells; format: cell-based, human; conditions: 24 h incubation
Method: (§1) Cells were seeded in a 96-well tissue culture dish at 1 × 10^4 cells per well. Twenty-four hours after seeding, serial dilutions of YM155 were applied so that the final concentration ranged from 10 μM to 1 nM. Between 24 to 48 h, MTT at 5 mg/mL was applied, and the cells were allowed to incubate at 37 °C and 5% CO2 for 2.5 h. Formazan crystals were resolubilized in 10% SDS and 0.01 M HCl. Absorbance was measured at 570 nm and normalized to 650 nm. Caspase activity was measured using the Caspase-Glo 3/7 and Caspase-Glo 8 (Promega, G8090, and G8200) assay systems. The manufacturer’s instructions were followed for a 96-well plate assay.

caspase 8 = assay: Caspase-Glo 8 activity in HS-SY-II cells; format: cell-based, human; conditions: 24 h incubation
Method: as §1

[3] = test system: HS-SY-II human synovial sarcoma cell line; assay: MTT viability assay, HS-SY-II cells, 24 h; format: cell-based; conditions: 24 h viability assay
Method: as §1, with “The human SYO-1, Yamato, and HS-SY-II cell lines were received from Torsten Nielsen at the University of British Columbia. The MoJo cell line was developed as previously described from a consented patient’s synovial sarcoma. Each was maintained in Dulbecco’s modified Eagle medium (DMEM) with 10% fetal bovine serum (FBS) and tested for mycoplasma using MycoAlert Plus (Lonza, Walkersville, MD, USA) every 6 months. Cells” for “Cells”

Birc5 promoter [4] = assay: ChIP-qPCR of histone marks at the Birc5 promoter in treated mouse synovial sarcomas; format: in vivo; conditions: mouse synovial sarcomas treated 11 days, vs controls
Method: (§2) Mice had tumors initiated at 1 month of age. Tumors developed for the next 6 months allowing tumor volumes to reach 500–1000 mm^3. Mice were then subjected to daily intraperitoneal injections of 20 mg/kg of YM155 for 11 days. One mouse with bilateral tumors was censored at day 7. Tumors were measured using digital calipers and volumes were calculated using the equation (L∗W^2)/2. A small portion of the tumor was fixed in 4% paraformaldehyde overnight and then embedded in paraffin. The rest of the tumor was flash frozen in liquid nitrogen and stored at −80 °C until further use.
Mouse tumors were pulverized in a Covaris tissueTUBE attached to a Covaris glass tube (13 × 65 mm) using a hammer and an aluminum block on dry ice. Samples were intermittently placed in liquid nitrogen to maintain molecular interactions. The powderized tissue was resuspended in PBS + protease inhibitors (Sigma, 11836153001, St. Louis, MO, USA) and fixed in 1% formaldehyde for 10 min at room temperature. The cross linking was quenched by adding 125 mM glycine. Samples were washed three times using cold PBS and cold centrifugation at 1000× g for 5 min. Similarly, cells can be fixed in 1% formaldehyde and washed while cells are still adherent to the bottom of the tissue culture dish. […]

[5] = test system: NFκB binding to the BIRC5 promoter; assay: ChIP-qPCR for NFκB at the BIRC5 promoter in HS-SY-II cells; format: cell-based, human; conditions: 0.2 μM YM155, 24 h, vs control, p = 0.32
Method: Mouse tumors were pulverized in a Covaris tissueTUBE attached to a Covaris glass tube (13 × 65 mm) using a hammer and an aluminum block on dry ice. Samples were intermittently placed in liquid nitrogen to maintain molecular interactions. The powderized tissue was resuspended in PBS + protease inhibitors (Sigma, 11836153001, St. Louis, MO, USA) and fixed in 1% formaldehyde for 10 min at room temperature. The cross linking was quenched by adding 125 mM glycine. Samples were washed three times using cold PBS and cold centrifugation at 1000× g for 5 min. Similarly, cells can be fixed in 1% formaldehyde and washed while cells are still adherent to the bottom of the tissue culture dish. Cells in both cases were lysed using cold Farnham cell lysis buffer (5mM PIPES pH 8.0, 85 mM KCl, 0.5% NP-40) with protease inhibitors by incubating on ice for 10 min. Cells were collected and dounced with a glass tube and rod 20 times with a loose rod and 10 times with a tight rod. Samples were filtered through 70 μm filter and centrifuged at 1000× g for 10 min. The supernatant was removed and 1 mL of RIPA lysis buffer (1% NP-40, 0.5% Na deoxycholate, 0.1% SDS/PBS) was added for every 300 mg of tissue or 1 × 10^7 cells and incubated on ice for 10 min. Sonication proceeded in the following manner: 1 mL aliquots were sonicated with a 30 s on and 30 s off cycle for 8 cycles totaling 4 min of sonication time. […]

[6] = Body weight of mice during YM155 treatment; format: in vivo, mouse; conditions: 20 mg/kg daily for 11 days
Method: as §2

BIRC5 = BIRC5 transcript level by PCR normalized to GAPDH; format: cell-based, human; conditions: HS-SY-II, 24 h, normalized to GAPDH mRNA; p = 0.0006
synovial sarcoma = assay: YM155 in combination with BCL2 inhibitors
[7] = test system: synovial sarcomas expressing Rosa26-LSL-SS18-SSX2; assay: Tumor growth in genetically engineered mouse model of synovial sarcoma; format: in vivo
Method: Mouse experiments were conducted with the approval of the University of Utah’s Institutional Animal Care Committee in accordance with legal and ethical standards established by the National Research Council and published in the Guide for the Care and Use of Laboratory Animals (protocol # 14-01016). The previously described Rosa26-LSL-SS18-SSX2 mice were maintained on a mixed strain background, C57BL/6 and SvJ. Mice were genotyped with the following primers: Rosa26-LSL-SS18-SSX2 (F flox-[…], F wt–[…]-TGG, R-[…]). TATCre was dosed by 10 μL intramuscular injections at 50 μM at 1 month of age.
as §2
The control mice group with tumor was compared to the YM155 treated tumor group in a single factor ANOVA statistical test. For most comparisons between control and YM155 treated synovial sarcomas, Student’s t-tests were performed.

NFκB = NFκB immunoblot of treated mouse synovial sarcomas; format: in vivo; conditions: mouse sarcomas after 11 days of YM155; p = 0.015
Method: as §2
(§3) Protein was isolated from cells or tissues by incubating in a mild lysis buffer (10 mM Tris-HCl pH 8.1, 10 mM NaCl, 0.5% NP-40, and proteinase inhibitors). The fractions were clarified at 14,000 rpm for 10 min before loading 25–50 μg/sample for gel electrophoresis and transfer to PVDF membrane. Western blots were probed with the following primary antibodies: anti-Survivin (Cell Signaling Technology, 2808, 1:1000), anti-NFκB/p65 (Cell Signaling Technology, 8242, 1:800) anti-GAPDH (Proteintech, 10494-1-AP, 1:1000). The immunoblots were probed secondarily with goat anti-rabbit antibodies conjugated with horse radish peroxidase and bands were detected using Bio-Rad Gel Doc MP imaging station.

[8] = test system: SYO-1 human synovial sarcoma cell line; assay: MTT viability assay, SYO-1 cells, 48 h; format: cell-based; conditions: 48 h treatment
Method: as §1, with “The human SYO-1, Yamato, and HS-SY-II cell lines were received from Torsten Nielsen at the University of British Columbia. The MoJo cell line was developed as previously described from a consented patient’s synovial sarcoma. Each was maintained in Dulbecco’s modified Eagle medium (DMEM) with 10% fetal bovine serum (FBS) and tested for mycoplasma using MycoAlert Plus (Lonza, Walkersville, MD, USA) every 6 months. Cells” for “Cells”

[9] = test system: Mojo human synovial sarcoma cell line; assay: MTT viability assay, MoJo cells, 48 h; format: cell-based; conditions: 48 h treatment
Method: as §1, with “The human SYO-1, Yamato, and HS-SY-II cell lines were received from Torsten Nielsen at the University of British Columbia. The MoJo cell line was developed as previously described from a consented patient’s synovial sarcoma. Each was maintained in Dulbecco’s modified Eagle medium (DMEM) with 10% fetal bovine serum (FBS) and tested for mycoplasma using MycoAlert Plus (Lonza, Walkersville, MD, USA) every 6 months. Cells” for “Cells”

[10] = test system: Yamato human synovial sarcoma cell line; assay: MTT viability assay, Yamato cells, 48 h; format: cell-based; conditions: 48 h treatment
Method: as §1, with “The human SYO-1, Yamato, and HS-SY-II cell lines were received from Torsten Nielsen at the University of British Columbia. The MoJo cell line was developed as previously described from a consented patient’s synovial sarcoma. Each was maintained in Dulbecco’s modified Eagle medium (DMEM) with 10% fetal bovine serum (FBS) and tested for mycoplasma using MycoAlert Plus (Lonza, Walkersville, MD, USA) every 6 months. Cells” for “Cells”

survivin [11] = assay: Survivin immunoblot of treated mouse synovial sarcomas; format: in vivo; conditions: mouse sarcomas after 11 days of YM155; p = 0.034
Method: as §2, §3

BIRC5 promoter [12] = assay: ChIP-qPCR of histone marks at the BIRC5 promoter in HS-SY-II cells; format: cell-based, human; conditions: 0.2 μM YM155, 24 h, vs controls
Method: Mouse tumors were pulverized in a Covaris tissueTUBE attached to a Covaris glass tube (13 × 65 mm) using a hammer and an aluminum block on dry ice. Samples were intermittently placed in liquid nitrogen to maintain molecular interactions. The powderized tissue was resuspended in PBS + protease inhibitors (Sigma, 11836153001, St. Louis, MO, USA) and fixed in 1% formaldehyde for 10 min at room temperature. The cross linking was quenched by adding 125 mM glycine. Samples were washed three times using cold PBS and cold centrifugation at 1000× g for 5 min. Similarly, cells can be fixed in 1% formaldehyde and washed while cells are still adherent to the bottom of the tissue culture dish. Cells in both cases were lysed using cold Farnham cell lysis buffer (5mM PIPES pH 8.0, 85 mM KCl, 0.5% NP-40) with protease inhibitors by incubating on ice for 10 min. Cells were collected and dounced with a glass tube and rod 20 times with a loose rod and 10 times with a tight rod. Samples were filtered through 70 μm filter and centrifuged at 1000× g for 10 min. The supernatant was removed and 1 mL of RIPA lysis buffer (1% NP-40, 0.5% Na deoxycholate, 0.1% SDS/PBS) was added for every 300 mg of tissue or 1 × 10^7 cells and incubated on ice for 10 min. Sonication proceeded in the following manner: 1 mL aliquots were sonicated with a 30 s on and 30 s off cycle for 8 cycles totaling 4 min of sonication time. Sonicated samples were centrifuged at 1400 rpm for 5 min and the supernatant was kept for chromatin immunoprecipitation.
Dynabeads (Invitrogen, 11204D, Carlsbad, CA, USA) were washed in 0.5 mg/mL BSA/PBS three times on a magnet. Sonicated samples were precleared with 30 μL of beads for 1 h at 4 °C. After preclearing, 50 μL of the sample was set aside as the input DNA. Supernatants were transferred to a new tube and 5 μg of primary antibodies were added and incubated overnight at 4 °C. The following antibodies were used for immunoprecipitation. […]

## Cc1ccc(S(=O)(=O)/C=C/C#N)cc1 [BAY 11-7082]
Survivin [1]
  survivin levels upon inhibition of NFκB: decrease in survivin levels

## COCCn1c2c([n+](Cc3cnccn3)c1C)C(=O)c1ccccc1C2=O [YM155, sepantronium bromide]
[2]
  dose associated with adverse events: above 4.8 mg/m^2/day
Caspase 3/7
  caspase 3/7 activity: increased with higher concentrations
Caspase 8
  caspase 8 activity: increased with higher concentrations
[3]
  EC50: 2640 ± 140 nM
Birc5 promoter [4]; p = 0.045
  H3K27me3 at the Birc5 promoter (ChIP-qPCR): elevated levels
Birc5 promoter [4]; p = 0.14
  H3K27ac at the Birc5 promoter (ChIP-qPCR): elevated levels
[5]
  binding of NFκB to the BIRC5 promoter (ChIP-qPCR): unable to detect a difference
[6]
  weight loss in treated mice: no detectable weight loss
BIRC5
  reduction in normalized BIRC5 expression: 39.5%
Synovial sarcoma
  synergy of combination with BCL2 inhibitors: minimally synergistic
[7]; 20 mg/kg daily intraperitoneal for 11 days, control tumors 1.78-fold increase, p = 0.028
  decrease of tumor growth (mean) over 11 days: 17%
[7]; treated mice with synovial sarcoma
  reduction in tumor volume compared to control treated mice: 50%
NFκB
  NFκB protein level (immunoblot, normalized to GAPDH): striking increase
[8]
  EC50: 103 nM
[9]
  EC50: 62 nM
[10]
  EC50: 22 nM
Survivin [11]
  survivin protein level (immunoblot, normalized to GAPDH): striking decrease
BIRC5 promoter [12]
  H3K4me1 at the BIRC5 promoter (ChIP-qPCR): a decrease
  H3K27ac at the Birc5 promoter (ChIP-qPCR): elevated levels
  H3K27me3 at the Birc5 promoter (ChIP-qPCR): elevated levels
